Patent US20160339022A1, “TREATMENT OF NEUROBLASTOMA WITH HISTONE DEACETYLASE INHIBITORS” (Acetylon Pharmaceuticals Inc., priority 2015, published 2016)

Columns and labels:
HDAC2 = HDAC2 (Homo sapiens, UniProt Q92769); assay: HDAC2 activity in live cells; format: cell-based; conditions: FIG. 1C
SK-N-BE(2) cells [1] = assay: Differentiation Index Score based on a gene signature; format: cell-based; conditions: 48 hours, FIG. 1
Procedure: A subset of the fingerprint genes are assessed for each treatment group, and a score is assigned to each gene based on the degree of expression and weighted with a (+) or (−) sign based on if it increased or decreased as predicted. The scores are summed to generate a single Index value for each treatment group, set to ATRA signal and compared. It is observed that HDAC1/2i induce gene expression consistent with differentiation and that in combination with ATRA, the differentiation effect is enhanced.
The combination of the listed compounds with retinoic acid results in a greater differentation index score, illustrating enhanced differentiation in the combination setting.

SK-N-BE(2) cells [2] = assay: Cell viability (Promega CellTiter Glo assay); format: cell-based
Procedure: Cells were cultured for 48 hours at the indicated concentration of drug, and then cell viability was measured by Promega CellTiter Glo assay and caspase activity was measured by Promega Caspase3/7 Glo assay. […] Anti-tumor activity is evident at 3 μM of treatment.

neuroblastoma cells [3] = assay: Neuroblastoma proliferation, manual cell counts over 7 days; format: cell-based; conditions: 1 μM and 3 μM, counted at days 3, 5 and 7
Procedure: Cells were cultured over a 7 day period and manually counted at days 3, 5, and 7.

neuroblastoma cells [4] = assay: Cell cycle analysis (Click-iT EdU and FxCycle PI/RNase staining); format: cell-based; conditions: 7 days, with ATRA
Procedure: Cells were cultured for 7 days with the indicated treatments and then stained with the Invitrogen Click-iT EdU kit and the Invitrogen FxCycle […] kits to assess frequency of cells in each stage of the cell cycle. […] The effect is enhanced by Compound B in a dose dependent manner.
In combination with ATRA, the effect on p21 is enhanced at concentrations that induce gene expression changes consistent with differentiation. At 7 days of treatment, combination effects are observed on the cell cycle, with a decreasing frequency of s-phase cells and an increasing sub-G1 population (FIG. 6B). […] EDU is increased in cells in s-phase while PI intensity indicates relative levels of DNA. Using these metrics, we illustrate the frequency of cells in the indicated states of the cell cycle.

p21 = assay: Expression of cell cycle regulator p21; format: cell-based; conditions: single agent, FIG. 6A
neuroblastoma cells [5] = assay: Morphology changes / dendrite outgrowth by inverted microscope; format: cell-based; conditions: 3, 5 and 7 days
Procedure: Cells were cultured for 3, 5, and 7 days with the indicated treatments. Images were captured on an inverted microscope.

neuroblastoma cells [6] = assay: Long term growth assay (15, 20, 25 days, Crystal Violet); format: cell-based
Procedure: Cells were cultured for 15, 20 or 25 days with the indicated treatments. Cells were imaged on an inverted microscope at days 15 and 20. On day 25, the cells were stained with Crystal Violet dye and imaged by cell phone camera Importantly, the combination of ATRA and Compound B suppressed the growth of ATRA-resistant colonies.
Cells were cultured for 15, 20 or 25 days with the indicated treatments. Cells were imaged on an inverted microscope at days 15 and 20. On day 25, the cells were stained with Crystal Violet dye and imaged.
Cells were cultured for 15, 20 or 25 days with the indicated treatments. Cells were imaged on an inverted microscope at days 15 and 20. On day 25, the cells were stained with Crystal Violet dye and imaged. It was observed that the combination activity is mediated by HDAC1/2i.
Neuroblastoma cells were treated with Compound B or the HDAC3-selective inhibitor Compound C in a long term growth assay.

Wnt signaling pathway = assay: Levels of Wnt-related signaling molecules; format: cell-based; conditions: SK-N-BE2 cells; 3 days in culture
Procedure: The levels of Wnt-related signaling molecules were assessed following treatment (SK-N-BE2 cells; 3 days in culture) with DMSO (control), Compound B alone, ATRA alone, and Compound B in combination with ATRA. b-catenin, the key signaling molecule in the Wnt pathway, is decreased by the Compound B and ATRA combination. Activated p-LRP is decreased after Compound B single agent treatment. Disheveled (Dvl) 2 & 3 is reduced by Compound B and ATRA combination treatment. Naked2 is increased by Compound B as a single agent and in combination with ATRA. Axin1 is decreased by Compound B as a single agent and in combination with ATRA.

AKT and c-RAF = assay: Levels of AKT and c-RAF; format: cell-based; conditions: SK-N-BE2 cells; 3 days in culture
Procedure: The levels of AKT and c-RAF were assessed following treatment (SK-N-BE2 cells; 3 days in culture) with DMSO (control), Compound B alone, ATRA alone, and Compound B in combination with ATRA. Activated AKT is increased by ATRA and reduced in the combination setting with Compound B. Compound B as a single agent, and in combination with ATRA, decreases cRAF phosphorylation at residue Ser259.

neuroblastoma cells [7] = conditions: MTS assay, FIGS. 27 and 28
Procedure: Viable cells were measured in an MTS assay and the combination index (CI) was calculated using the Chou-Talaay method.

Sequence of HDAC2 (Q92769 whole entry): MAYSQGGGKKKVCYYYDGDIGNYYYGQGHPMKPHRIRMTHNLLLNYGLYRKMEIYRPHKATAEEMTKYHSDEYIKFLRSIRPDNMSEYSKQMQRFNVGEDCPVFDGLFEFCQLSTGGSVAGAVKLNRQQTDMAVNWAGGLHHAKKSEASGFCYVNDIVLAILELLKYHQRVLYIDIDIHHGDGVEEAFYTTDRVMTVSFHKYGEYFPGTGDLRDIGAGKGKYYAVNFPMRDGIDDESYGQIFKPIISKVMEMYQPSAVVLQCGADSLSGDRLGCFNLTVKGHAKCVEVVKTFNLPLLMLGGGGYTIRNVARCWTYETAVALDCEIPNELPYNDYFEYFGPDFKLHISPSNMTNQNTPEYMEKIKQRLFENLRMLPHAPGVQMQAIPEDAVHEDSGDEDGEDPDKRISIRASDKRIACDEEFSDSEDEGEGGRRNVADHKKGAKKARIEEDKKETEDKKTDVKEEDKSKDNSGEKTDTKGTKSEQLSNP

Nc1ccc(-c2cccs2)cc1NC(=O)c1ccc2c(c1)cc(C1CC1)n2CCN1CCOCC1 [Compound B, N-(2-amino-5-(thiophen-2-yl)phenyl)-2-cyclopropyl-1-(2-morpholinoethyl)-1H-indole-5-carboxamide]
potency of inhibition of HDAC2 activity in live cells (HDAC2): 500 to 3000 nM
Differentiation Index Score (gene signature) (SK-N-BE(2) cells [1]): induces gene expression changes consistent with differentiation
cell death (SK-N-BE(2) cells [2]; 1 μM, 48 hours): Minimal
anti-tumor activity (SK-N-BE(2) cells [2]; 3 μM, 48 hours): evident
concentrations causing tumor cell death (SK-N-BE(2) cells [2]; FIG. 2A): ≥ 2 µM
proliferation, single agent (neuroblastoma cells [3]): can suppress proliferation similar to ATRA
effect on ATRA-mediated s-phase reduction and sub-G1 increase (neuroblastoma cells [4]): enhanced
expression of master cell cycle regulator p21 (p21): increased expression
morphology / dendrite outgrowth (neuroblastoma cells [5]): does not alter morphology
neuroblastoma cell growth in long term growth assay (neuroblastoma cells [6]; 1 μM of exposure, single agent, FIG. 11): reduced neuroblastoma cell growth
growth of ATRA-resistant colonies (neuroblastoma cells [6]; combination with ATRA, 15-25 days): strongly suppressed
Axin1 level (Wnt signaling pathway): decreased
Naked2 level (Wnt signaling pathway): increased
activated p-LRP level (Wnt signaling pathway): decreased
cRAF phosphorylation at residue Ser259 (AKT and c-RAF): decreases
cytotoxic effect on neuroblastoma cells as a single agent (neuroblastoma cells [7]): has a cytotoxic effect
